Experimental data published in patent US7999001B2 (priority 2007, dated 2011).
Entries after “also recorded” stand apart in the source; their conditions may differ.

Legend:
[1] = tested on: EBOV-GFP (recombinant Ebola Zaire virus expressing green fluorescence protein); experiment: microbe, parasite or virus in culture; format: cell-based; conditions: Zaire ebolavirus, Vero C1008, 48 h, read-out: EBOV % Inhibition (20 μM)
EBOV-GFP = experiment: microbe, parasite or virus in culture; format: cell-based, Ebola Zaire virus; conditions: for IC50: Zaire ebolavirus, Vero C1008, read-out: IC50 (read from graphs of % of control infection)
[2] = tested on: MPXV-GFP (recombinant monkeypox virus expressing GFP, Zaire strain); experiment: microbe, parasite or virus in culture; format: cell-based; conditions: Vero C1008, in Primates, 48 h, read-out: Monkey Pox % Inhibition (20 μM)
[3] = tested on: Rift Valley Fever Virus (ZH501 strain); format: cell-based
[4] = tested on: influenza virus (H1N1 A/Texas strain); format: cell-based
[5] = tested on: Lassa virus (Josiah strain); format: cell-based
[6] = tested on: cowpox virus (CPXV, egfpCPV virus); set-up: species or system mice; conditions: mouse, in vivo
GFP-EBOV = format: cell-based, Ebola Zaire virus

Row | Structure (SMILES) | inhibition at 20 µM [1] [%] | inhibition at 20 µM [2] [%] | other results
1 | CC(=O)NC1=C(Sc2ccc(Cl)cc2)C(=O)c2ccccc2C1=O [NSC 128981, N-(3-((4-chlorophenyl)thio)-1,4-dioxo-1,4-dihydro-2-naphthalenyl)acetamide] | 97.7 | – | IC50 (EBOV-GFP): ~15 µM
2 | N=C(N)c1ccc(-c2cc3ccc(C(=N)N)cc3s2)cc1 [NSC 240890, 2-(4-carbamimidoylphenyl)benzothiophene-6-carboximidamide; 2-hydroxypropanoic acid] | 54.9 | 46.7 | –
3 | N=C(N)c1ccc(-c2cc3cc(C(=N)N)ccc3s2)cc1 [NSC 240891, 2-(4-carbamimidoylphenyl)benzothiophene-5-carboximidamide] | 40.3 | 99.4 | –
4 | N=C(N)c1ccc(-c2nc3ccc(C(=N)N)cc3[nH]2)cc1 [NSC 240894, 2-(4-carbamimidoylphenyl)-3H-benzoimidazole-5-carboximidamide] | – | 89.7 | –
5 | N=C(N)c1ccc(-n2cc3cc(C(=N)N)ccc3n2)cc1 [NSC 240895, 2-(4-carbamimidoylphenyl)indazole-5-carboximidamide] | 32.2 | 99.7 | –
6 | N=C(N)c1ccc(Oc2ccc(-c3cc4ccc(C(=N)N)cc4[nH]3)cc2)cc1 [NSC 240898, 2-[4-(4-carbamimidoylphenoxy)phenyl]-1H-indole-6-carboximidamide] | – | 98.1 | –
7 | N=C(N)c1ccc(-c2cc(-c3ccc(C(=N)N)cc3)on2)cc1 [NSC 240900, 4-[3-(4-carbamimidoylphenyl)oxazol-5-yl]benzenecarboximidamide] | – | 79.9 | –
8 | c1cc(-c2cc3ccc(C4=NCCN4)cc3[nH]2)ccc1C1=NCCN1 [NSC 278995, 6-(4,5-dihydro-1H-imidazol-2-yl)-2-[4-(4,5-dihydro-1H-imidazol-2-yl)phenyl]-1H-indole] | – | 99.3 | –
9 | C(=C\c1cc2cc(C3=NCCN3)ccc2o1)/c1cc2cc(C3=NCCN3)ccc2[nH]1 [NSC 290108, 5-(4,5-dihydro-1H-imidazol-2-yl)-2-[(E)-2-[5-(4,5-dihydro-1H-imidazol-2-yl)benzofuran-2-yl]ethenyl]-1H-indole] | 45 | 45.1 | –
10 | N=C(N)c1ccc2cc(/C=C/c3cc4ccc(C(=N)N)cc4o3)oc2c1 [NSC 294199, 2-[(E)-2-(6-carbamimidoylbenzofuran-2-yl)ethenyl]benzofuran-6-carboximidamide] | 68.8 | 40.9 | –
11 | N=C(N)c1ccc2oc(/C=C/c3cc4ccc(C(=N)N)cc4o3)cc2c1 [NSC 294202, 2-[(E)-2-(5-carbamimidoylbenzofuran-2-yl)ethenyl]benzofuran-6-carboximidamide] | 71.2 | – | dose dependent antiviral activity toward EBOV-GFP (EBOV-GFP): dose dependent antiviral activity; IC50 (EBOV-GFP): ~6 µM; antiviral activity toward RVFV [3]: showed antiviral activity; antiviral activity toward influenza virus [4]: showed antiviral activity; inhibition of influenza virus replication [4]: more than one log; also recorded: inhibit the replication; antiviral activity toward LV (Lassa virus) [5]: showed antiviral activity
12 | O=C(Nc1ccc(C2=NCCN2)cc1)c1cc2ccc(C3=NCCN3)cc2[nH]1 [NSC 294206, 6-(4,5-dihydro-1H-imidazol-2-yl)-N-[4-(4,5-dihydro-1H-imidazol-2-yl)phenyl]-1H-indole-2-carboxamide] | 61.5 | 86 | dose dependent antiviral activity toward EBOV-GFP (EBOV-GFP): dose dependent antiviral activity
13 | N=C(N)c1ccc(-c2[nH]c3cc(C(=N)N)ccc3c2N)cc1 [NSC 300509, 3-amino-2-(4-carbamimidoylphenyl)-1H-indole-6-carboximidamide] | – | 84.9 | –
14 | N=C(N)c1ccc(-c2ccc(-c3ccc(C(=N)N)cc3)s2)cc1 [NSC 300510, 4-[5-(4-carbamimidoylphenyl)thiophen-2-yl]benzenecarboximidamide] | 59.7 | 89.9 | dose dependent antiviral activity toward EBOV-GFP (EBOV-GFP): dose dependent antiviral activity
15 | Cc1cc(NCCCN(C)C)c2ccc3c(ccc4c(NCCCN(C)C)cc(C)nc43)c2n1 [NSC 306365, N,N′-bis(3-dimethylaminopropyl)-3,9-dimethylquinolino[8,7-h]quinoline-1,7-diamine] | 99 | 99 | IC50 toward EBOV (in words) (EBOV-GFP): submicromolar; dose dependent antiviral activity toward EBOV-GFP (EBOV-GFP): dose dependent antiviral activity; antiviral activity toward RVFV [3]: showed antiviral activity; also recorded: dose-dependent inhibition; also recorded: dose dependent antiviral activity; antiviral activity toward influenza virus [4]: showed antiviral activity; inhibition of influenza virus replication [4]: half log; also recorded: inhibit the replication; antiviral activity toward LV (Lassa virus) [5]: showed antiviral activity; also recorded: dose dependent inhibition; inhibition of Lassa virus replication [5]: one log; also recorded: inhibit the replication; mean time to death [6]: increase in the mean time to death; also recorded: prolongs the mean time to death
16 | c1cc(-c2cc3cc(C4=NCCN4)ccc3s2)ccc1C1=NCCN1 [NSC 308569, 2-[2-[4-(4,5-dihydro-1H-imidazol-2-yl)phenyl]benzothiophen-5-yl]-4,5-dihydro-1H-imidazole] | 35.3 | 95.8 | –
17 | c1cc2cc(-c3cc4ccc(C5=NCCN5)cc4[nH]3)[nH]c2cc1C1=NCCN1 [NSC 330688, 6-(4,5-dihydro-1H-imidazol-2-yl)-2-[6-(4,5-dihydro-1H-imidazol-2-yl)-1H-indol-2-yl]-1H-indole] | 51.3 | 84.9 | –
18 | N=C(N)c1ccc2c(c1)=NC(=C(N)N)C=2 [NSC 330689, 2-(diaminomethylidene)indole-6-carboximidamide] | – | 89.9 | –
19 | NC(N)=NN=Cc1ccc2cc(-c3ccc(/C=N/N=C(N)N)cc3)sc2c1 [NSC 341909, 2-[[2-[4-[(E)-(diaminomethylidenehydrazinylidene)methyl]phenyl]benzothiophen-6-yl]methylideneamino]guanidine] | 57.5 | 95.8 | –
20 | Nc1ccc(-c2cc3ccc(C4=NCCN4)cc3[nH]2)cc1 [NSC 369715, 4-(6-(4,5-dihydro-1H-imidazol-2-yl)-1H-indol-2-yl)phenylamine] | 56.8 | – | –
21 | N=C(N)c1ccc2oc(C=Cc3nc4cc(C(=N)N)ccc4[nH]3)cc2c1 [NSC 369723, 2-(2-(5-(amino(imino)methyl)-1-benzofuran-2-yl)vinyl)-1H-benzimidazole-5-carboximidamide] | 94 | – | dose dependent antiviral activity toward EBOV-GFP (EBOV-GFP): dose dependent antiviral activity; IC50 (EBOV-GFP): ~4 µM; antiviral activity toward RVFV [3]: not; antiviral activity toward influenza virus [4]: not; antiviral activity toward LV (Lassa virus) [5]: not; effect of 24 hours pre-treatment of cells versus treatment during and after infection (GFP-EBOV): more effective than treatment during and after infection
